This is an account of results in patent US20080161288A1, “COMPOUNDS” (Pfizer Inc., priority 2006, published 2008).

The target in experiment [1] is T1, bovine beta-2 adrenoceptor (Bos taurus, UniProt Q28044).
T1 construct: expressed in transfected cells; host or cells: CHO cells
Put plainly: cAMP assay in CHO cells transfected with the bovine beta-2 adrenoceptor. The class given is cell-based. Conditions: cAMP (DiscoveRx Hit Hunter cAMP II) in CHO cells transfected with bovine beta-2 adrenoceptor, 30 minutes with compound, 0.5 mM IBMX. In outline:
(§1)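 Transfected CHO cells were preincubated 30 min with 0.5 mM IBMX in PBS. Compound (5×10^−12 to 10^−5 M) was then applied for 30 min at 37 °C, 5% CO2, followed by cAMP measurement with an enzyme-fragment complementation kit. Duplicates, EC50 from curve fitting.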
For orientation: cAMP levels reflect the balance of adenylyl cyclase and phosphodiesterase activity.

The target of experiment [2] is T2, porcine beta-2 adrenoceptor (Sus scrofa, UniProt Q28997).
T2 construct: expressed in transfected cells; host or cells: CHO cells
T2 sequence (Q28997 whole entry): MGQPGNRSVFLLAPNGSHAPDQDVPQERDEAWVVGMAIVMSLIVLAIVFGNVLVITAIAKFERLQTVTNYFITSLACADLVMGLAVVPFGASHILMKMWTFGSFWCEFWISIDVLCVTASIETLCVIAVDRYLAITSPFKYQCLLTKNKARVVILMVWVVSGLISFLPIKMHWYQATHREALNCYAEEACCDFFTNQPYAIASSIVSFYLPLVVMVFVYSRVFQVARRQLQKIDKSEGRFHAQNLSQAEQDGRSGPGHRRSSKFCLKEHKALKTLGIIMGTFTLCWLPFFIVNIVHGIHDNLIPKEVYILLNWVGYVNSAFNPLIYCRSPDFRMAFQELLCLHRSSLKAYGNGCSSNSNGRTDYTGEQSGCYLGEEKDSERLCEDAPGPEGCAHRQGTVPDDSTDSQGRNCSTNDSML
The experiment can be described thus: cAMP assay in CHO cells transfected with the porcine beta-2 adrenoceptor. The class given is cell-based. Conditions: cAMP (DiscoveRx Hit Hunter cAMP II) in CHO cells transfected with porcine beta-2 adrenoceptor, 30 minutes with compound, 0.5 mM IBMX. In outline: as §1

T1 sequence (Q28044 whole entry): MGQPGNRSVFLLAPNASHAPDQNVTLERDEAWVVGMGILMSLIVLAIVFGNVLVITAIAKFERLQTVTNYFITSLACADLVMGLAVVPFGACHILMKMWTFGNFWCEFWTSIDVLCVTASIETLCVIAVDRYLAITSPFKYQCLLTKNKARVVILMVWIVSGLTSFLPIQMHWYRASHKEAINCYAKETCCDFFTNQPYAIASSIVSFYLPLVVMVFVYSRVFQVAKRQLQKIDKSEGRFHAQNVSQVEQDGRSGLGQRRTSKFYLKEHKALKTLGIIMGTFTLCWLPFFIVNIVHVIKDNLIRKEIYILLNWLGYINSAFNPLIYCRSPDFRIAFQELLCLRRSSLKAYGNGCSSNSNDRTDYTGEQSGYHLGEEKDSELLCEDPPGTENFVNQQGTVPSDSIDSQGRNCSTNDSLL

One may read the EC50 as the concentration at which the effect is half-maximal. Turning to `Cc1ccccc1CCC(C)NC1CCn2c(=O)[nH]c3cccc(c32)C1O` (centres unmarked) [Example 13a, 7-hydroxy-6-{[1-Methyl-3-(2-methylphenyl)propyl]amino}-4,5,6,7-tetrahydroimidazo[4,5,1-jk][1]benzazepin-2(1H)-one], the EC50 was 4.3 nM in experiment [1] and 3.9 nM in experiment [2].
For `C[C@H](CCc1ccccc1O)N[C@@H]1CCn2c(=O)[nH]c3cccc(c32)[C@H]1O` [Example 6f, 7-Hydroxy-6-{[3-(2-hydroxyphenyl)-1-methylpropyl]amino}-4,5,6,7-tetrahydroimidazo[4,5,1-jk][1]benzazepin-2(1H)-one], in that order: 1 nM and 1.9 nM.
For `CC(CCc1cc(F)ccc1O)N[C@@H]1CCn2c(=O)[nH]c3cccc(c32)[C@H]1O` (single isomer, unassigned) [Example 7b, 6-{[3-(5-Fluoro-2-hydroxyphenyl)-1-methylpropyl]amino}-7-hydroxy-4,5,6,7-tetrahydroimidazo[4,5,1-jk][1]benzazepin-2(1H)-one], in that order: 0.3 nM and 0.5 nM.
For `CC(CCc1ccc(O)cc1)N[C@@H]1CCn2c(=O)[nH]c3cccc(c32)[C@H]1O` (single isomer, unassigned) [Example 2b, 7-Hydroxy-6-{[3-(4-hydroxyphenyl)-1-methylpropyl]amino}-4,5,6,7-tetrahydroimidazo[4,5,1-jk][1]benzazepin-2(1H)-on], in that order: 298 nM and 121 nM.
As to `CC(CC(C)(C)c1ccccc1)N[C@@H]1CCn2c(=O)[nH]c3cccc(c32)[C@H]1O` (single isomer, unassigned) [Example 14b, 6-[(1,3-Dimethyl-3-phenylbutyl)amino]-7-hydroxy-4,5,6,7-tetrahydroimidazo[4,5,1-jk][1]benzazepin-2(1H)-one], the EC50 came to 3.4 nM in experiment [1] and 4.2 nM in experiment [2].
Turning to `COc1ccc(O)c(CCC(C)N[C@@H]2CCn3c(=O)[nH]c4cccc(c43)[C@H]2O)c1` (mixture of isomers) [Example 21, 7-Hydroxy-6-{[3-(2-hydroxy-5-methoxyphenyl)-1-methylpropyl]amino}-4,5,6,7-tetrahydroimidazo[4,5,1-jk][1]benzazepin-2(1H)-one], the half-maximal effective concentration (EC50) was found to be 3.2 nM in experiment [1] and 3.1 nM in experiment [2].
Take `CC(CCc1ccc(C(=O)O)cc1)NC1CCn2c(=O)[nH]c3cccc(c32)C1O` (single isomer, unassigned) [Example 68, 4-[3-{[7-Hydroxy-2-oxo-1,2,4,5,6,7-hexahydroimidazo[4,5,1-jk][1]benzazepin-6-yl]amino}butyl]benzoic acid]: the values for the concentration for a half-maximal effect (EC50) in experiment [1] and in experiment [2] were 198 nM and 128 nM, respectively.
With `CC(CCc1cccc(O)c1)N[C@@H]1CCn2c(=O)[nH]c3cccc(c32)[C@H]1O` (mixture of isomers) [Example 43, 7-Hydroxy-6-{[3-(3-hydroxyphenyl)-1-methylpropyl]amino}-4,5,6,7-tetrahydroimidazo[4,5,1-jk][1]benzazepin-2(1H)-one], the EC50 in experiment [1] amounted to 7.2 nM; in experiment [2], 5.6 nM.
Taken in the same sequence, the figures for `CC(/C=C/c1ccccc1NS(C)(=O)=O)N[C@@H]1CCn2c(=O)[nH]c3cccc(c32)[C@H]1O` (mixture of isomers) [Example 42, N-{2-[3-{[7-Hydroxy-2-oxo-1,2,4,5,6,7-hexahydroimidazo[4,5,1-jk][1]benzazepin-6-yl]amino}but-1-en-1-yl]phenyl}methanesulfonamide] were 258 nM and 104 nM.
For `CC(=O)Nc1ccccc1CCC(C)NC1CCn2c(=O)[nH]c3cccc(c32)C1O` (single isomer, unassigned) [Example 63, N-{2-[3-{[7-Hydroxy-2-oxo-1,2,4,5,6,7-hexahydroimidazo[4,5,1-jk][1]benzazepin-6-yl]amino}butyl]phenyl}acetamide], in that order: 39.2 nM and 40.8 nM.
For `CC(CCc1ccccc1OC(C)C)NC1CCn2c(=O)[nH]c3cccc(c32)C1O` (centres unmarked) [Example 35, 7-Hydroxy-6-{[3-(2-isopropoxyphenyl)-1-methylpropyl]amino}-4,5,6,7-tetrahydroimidazo[4,5,1-jk][1]benzazepin-2(1H)-one], in that order: 7.3 nM and 1.8 nM.
Consider `CC(CCc1ccc(Cl)cc1O)N[C@@H]1CCn2c(=O)[nH]c3cccc(c32)[C@H]1O` (mixture of isomers) [Example 26, 6-{[3-(4-Chloro-2-hydroxyphenyl)-1-methylpropyl]amino}-7-hydroxy-4,5,6,7-tetrahydroimidazo[4,5,1-jk][1]benzazepin-2(1H)-one], for which the EC50 turned out to be 3.1 nM in experiment [1] and 1.7 nM in experiment [2].
For `CC(CCc1cc(C(F)(F)F)ccc1O)N[C@@H]1CCn2c(=O)[nH]c3cccc(c32)[C@H]1O` (mixture of isomers) [Example 31, 7-Hydroxy-6-({3-[2-hydroxy-5-(trifluoromethyl)phenyl]-1-methylpropyl}amino)-4,5,6,7-tetrahydroimidazo[4,5,1-jk][1]benzazepin-2(1H)-one], in that order: 27.2 nM and 8.1 nM.
